Test results as given in patent US6420387B1, “Farnesyl protein transferase inhibiting (imidazol-5-yl) methyl-2-quinolinone derivatives” (Janssen Pharmaceutica N.V., priority 1995, dated 2002).
Where a name gives a salt, the structure may show the parent alone.

How the values were obtained:
[1] = target: T1, Human farnesyl protein transferase (Homo sapiens, UniProt P49354+P49356); assay: In vitro assay for inhibition of farnesyl protein transferase (scintillation proximity assay); assay type: biochemical; details: concentration producing 50% inhibition of enzyme activity; [3H]-farnesylpyrophosphate and biotinylated lamin B peptide substrates, 60 min at 37° C.
T1 construct: grown as monolayer cell cultures were used as a source of human enzyme; endogenous in cells; host or cells: KHOS (Kirsten virus transformed human osteosarcoma) cells, grown as solid tumors in nude mice or as monolayer cultures; 30-50% ammonium sulfate fraction, then Q Fast Flow Sepharose
Protocol: Human farnesyl protein transferase was prepared essentially as described (Y. Reiss et al., Methods: A Companion to Methods in Enzymology vol 1, 241-245, 1990). Kirsten virus transformed human osteosarcoma (KHOS) cells (American Type Culture Collection, Rockville, Md., USA) grown as solid tumors in nude mice or grown as monolayer cell cultures were used as a source of human enzyme. Briefly, cells or tumors were homogenized in buffer containing 50 mM Tris, 1 mM EDTA, 1 mM EGTA and 0.2 mM phenylmethylsulfonylfluoride (pH 7.5). The homogenates were centrifuged 28,000×g for 60 min and the supernatants collected. A 30-50% ammonium sulfate fraction was prepared, and the resulting precipitate was resuspended in a small (10 to 20 ml) volume of dialysis buffer containing 20 mM Tris 1 mM dithiothreitol and 20 μM ZnCl2. The ammonium sulfate fraction was dialyzed overnight against two changes of the same buffer. The dialyzed material was applied to a 10×1 cm Q Fast Flow Sepharose (Pharmacia LKB Biotechnology Inc., Piscataway, N.J., USA) which had been preequilibrated with 100 ml of dialysis buffer supplemented with 0.05 M NaCl. The column was washed with an additional 50 ml of dialysis buffer plus 0.05 M NaCl followed by a gradient from 0.05 M to 0.25 M NaCl prepared in dialysis buffer. The enzyme activity was eluted with a linear gradient of 0.25 to 1.0 M NaCl prepared in the dialysis buffer. Fractions containing 4 to 5 ml volumes of column eluate were collected and analyzed for farnesyl protein transferase activity. Fractions with enzyme activity were pooled and supplemented with 100 μM ZnCl2. Enzyme samples were stored frozen at −70° C.
The activity of farnesyl protein transferase was measured using the Farnesyl Transferase [^3H] Scintillation Proximity Assay (Amersham International plc., England) under the conditions specified by the manufacturer. To assay for inhibitors of the enzyme, 0.20 μCi of the [^3H]-famesylpyrophosphate substrate and the biotinylated lamin B peptide substrate (biotin-YRASNRSCAIM) were mixed with test compounds in a reaction buffer consisting of 50 mM HEPES, 30 mM MgCl2, 20 mM KCl, 5 mM dithiothreitol, 0.01% Triton X-100. Test compounds were delivered in a 10 μl volume of dimethylsulfoxide (DMSO) to achieve concentrations of 1 and 10 μg/ml in a final volume of 100 μl. The reaction mixture was warmed to 37° C. The enzyme reaction was started by adding 20 μl of diluted human farnesyl protein transferase. Sufficient enzyme preparation was added to produce between 4000 to 15000 cpm of reaction product during the 60 min of reaction incubation at 37° C. Reactions were terminated by the addition of STOP/scintillation proximity bead reagent (Amersham). The reaction product [^3H]-farnesyl-(Cys)-biotin lamin B peptide was captured on the streptavidin linked scintillation proximity bead. The amount of [^3H]-farnesyl-(Cys)-biotin lamin B peptide synthesized in the presence or absence of test compounds was quantified as cpm by counting on a Wallac Model 1480 Microbeta Liquid Scintillation Counter. The cpm of product was considered to be farnesyl protein transferase activity. The protein farnesyl transferase activity observed in the presence of test compound was normalized to farnesyl transferase activity in the presence of 10% DMSO and expressed as per cent inhibition. […] The effects of test compounds in these studies were calculated as IC50 (concentration of test compound producing 50% inhibition of enzyme activity) using the LGICV50 computer program written by the Science Information Division of R. W. Johnson Pharmaceutical Research Institute (Spring House, Pa., USA) on a VAX computer.

[2] = test system: NIH 3T3 cells transformed by the T24 activated human H-ras gene; assay: Ras-transformed cell phenotype reversion assay; assay type: cell-based, mouse; details: NIH3T3; cell counts after 72 hours proliferation, corrected for initial input of 200,000 cells
From the text: Insertion of activated oncogenes such as the mutant ras gene into mouse NIH 3T3 cells converts the cells to a transformed phenotype. The cells become tumorigenic, display anchorage independent growth in semi-solid medium and lose contact inhibition. Loss of contact inhibition produces cell cultures which no longer form uniform monolayers. Rather, the cells pile up into multicellular nodules and grow to very high saturation densities in plastic tissue culture dishes. Agents such as protein farnesyl transferase inhibitors which revert the ras transformed phenotype restore the uniform monolayer growth pattern to cells in culture. This reversion is easily monitored by counting the number of cells in tissue culture plates. Transformed cells will achieve higher cell numbers than cells which have reverted to an untransformed phenotype. Compounds which revert the transformed phenotype should produce antitumor effects in tumors bearing ras gene mutations.
Compounds are screened in tissue culture in NIH 3T3 cells transformed by the T24 activated human H-ras gene. Cells are seeded at an initial density of 200,000 cells per well (9.6 cm^2 surface area) in six-well cluster tissue culture plates. Test compounds are immediately added to 3.0 ml cell growth medium in a 3.0 μl volume of DMSO, with a final concentration of DMSO in the cell growth medium of 0.1%. The test compounds are run at concentrations of 5, 10, 50, 100, and 500 nM along with a DMSO treated vehicle control. (In case a high activity is observed at 5 nM, the test compound is tested at even lower concentrations.) The cells are allowed to proliferate for 72 hours. Then the cells are detached in 1.0 ml trypsin-EDTA cell dissociation medium and counted on a Coulter particle counter.
Cell numbers expressed as cells per well are measured using a Coulter Particle Counter.
All cell counts were corrected for the initial cell input density by subtracting 200,000.
Control cell counts=[cell counts from cells incubated with DMSO vehicle −200,000].
Test compound cell counts=[cell counts from cells incubated with test compound −200,000]. [formula]
IC50 (i.e. the test compound concentration required to inhibit enzyme activity by 50%) is calculated if sufficient data are available, summarized in table 11.

[3] = test system: T24 activated human H-ras gene transformed NIH 3T3 fibroblast cells (T24 cells); assay: Farnesyl protein transferase inhibitor secondary tumor model; assay type: in vivo; details: nude mice with subcutaneous T24 cell tumors, 15 days of treatment
From the text: The enzyme farnesyl protein transferase catalyzes the covalent attachment of a farnesyl moiety derived from farnesyl pyrophosphate to the oncogene product p21^ras. This directs p21^ras to attach to plasma membranes. Once attached to plasma membranes, mutant or oncogenic forms of p21^ras will provide a signal for the transformation and uncontrolled growth of malignant tumor cells. Therefore, inhibitors of protein farnesyl transferase will prevent the membrane attachment of p21^ras and inhibit growth of ras-transformed tumors.
Nude mice are inoculated with 1×10^6 of T24 activated human H-ras gene transformed NIH 3T3 fibroblast cells (T24 cells), subcutaneously in the inguinal region. After three days to allow tumors to become established, treatment with test compounds is begun via the oral route. The test compounds are dissolved in a 20% β-cyclodextrin in 0.1 N HCl solution and administered orally as 0.1 ml of compound solution per 10 g mouse body weight. Routinely used doses are 6.25, 12.5 and 25 mg/kg. Body weights and tumor sizes are monitored during the ensuing 15 days of treatment. At the end of treatment, animals are sacrificed and tumors are weighed.
The “mean vehicle treated tumor weight” is defined as the mean tumor weight from 10 to 15 mice […].
The “mean tumor weight” is defined as the mean tumor weight from 10 to 15 mice […]. [formula]

Structure (SMILES) | IC50 [1] | melting point | IC50 [2] | % reduction final tumor weight at a dose of 25 mg/kg bid, po [3]
Cn1cncc1C(O)(c1ccc(Cl)cc1)c1ccc2c(c1)c(-c1cccc(Cl)c1)cc(=O)n2C (racemic) [Compound 3, (±)-4-(3-chlorophenyl)-6-[(4-chlorophenyl)hydroxy(1-methyl-1H-imidazol-5-yl)methyl]-1-methyl-2(1H)-quinolinone] | 1.7 nM | 233.6 °C | – | –
Cn1cncc1C(c1ccc(Cl)cc1)c1ccc2c(c1)c(-c1cccc(Cl)c1)cc(=O)n2C (racemic) (hydrate or solvate) [Compound 5, (±)-4-(3-chlorophenyl)-6-[(4-chlorophenyl)(1-methyl-1H-imidazol-5-yl)methyl]-1-methyl-2(1H)-quinolinone ethanedioate(1:1).mono-hydrate] | – | 157.4 °C | – | –
Cn1cncc1C(N)(c1ccc(Cl)cc1)c1ccc2c(c1)c(-c1cccc(Cl)c1)cc(=O)n2C (racemic) [Compound 14, (±)-6-[amino(4-chlorophenyl)(1-methyl-1H-imidazol-5-yl)methyl]-4-(3-chlorophenyl)-1-methyl-2(1H)-quinolinone] | – | – | 3.8 nM | 66%
Cn1cnc(C(c2ccc(Cl)cc2)c2ccc3c(c2)c(-c2ccccc2)cc(=O)n3C)c1 (racemic) [Compound 44, (±)-6-[(4-chlorophenyl)(1-methyl-1H-imidazol-4-yl)methyl]-1-methyl-4-phenyl-2(1H)-quinolinone] | – | 149.9 °C | – | –
CC(=O)NC(c1ccc(Cl)cc1)(c1ccc2c(c1)c(-c1cccc(Cl)c1)cc(=O)n2C)c1cncn1C.O=C(O)C(=O)O (racemic) [Compound 56, (±)-N-[(4-chlorophenyl)[4-(3-chlorophenyl)-1,2-dihydro-1-methyl-2-oxo-6-quinolinyl](1-methyl-1H-imidazol-5-yl)methyl]acetamide ethanedioate (1:1)] | – | – | 23 nM | 42%
CCOc1cccc(-c2cc(=O)n(C)c3ccc(C(c4ccc(Cl)cc4)c4cncn4C)cc23)c1 (stereo not shown) [Compound 35, 6-[(4-chlorophenyl)(1-methyl-1H-imidazol-5-yl)methyl]-4-(3-ethoxyphenyl)-1-methyl-2(1H)-quinolinone monohydrochloride.monohydrate] | 0.39 nM | – | 3.4 nM | 39%
Cn1cncc1C(CC#N)(c1ccc(Cl)cc1)c1ccc2c(c1)c(-c1cccc(Cl)c1)cc(=O)n2C (racemic) [Compound 25, (±)-4-(3-chlorophenyl)-β-(4-chlorophenyl)-1,2-dihydro-1-methyl-β-(1-methyl-1H-imidazol-5-yl)-2-oxo-6-quinolinepropanenitrile] | 2.2 nM | 151.3 °C | 86 nM | –
Cn1cncc1C(c1ccc(Cl)cc1)c1ccc2c(c1)c(-c1ccccc1)cc(=O)n2C (racemic) [Compound 2, (±)-6-[(4chlorophenyl)(1-methyl-1H-imidazol-5-yl)methyl]-1-methyl-4-phenyl-2(1H)-quinolinone] | 8 nM | 96.8 °C | – | –
CCCCn1cncc1C(O)(c1ccc(Cl)cc1)c1ccc2c(c1)c(-c1cccc(Cl)c1)cc(=O)n2C (racemic) [Compound 9, (±)-4-(3-chlorophenyl)-6-[(1-butyl-1H-imidazol-5-yl)(4-chlorophenyl)hydroxymethyl]-1-methyl-2(1H)-quinolinone] | – | 174.6 °C | – | –
CCOc1cccc(-c2cc(=O)n(C)c3ccc(C(O)(c4ccc(Cl)cc4)c4cncn4C)cc23)c1 (stereo not shown) [Compound 34, 6-[(4-chlorophenyl)hydroxy(1-methyl-1H-imidazol-5-yl)methyl]-4-(3-ethoxyphenyl)-1-methyl-2(1H)-quinolinone] | 1.6 nM | – | 3 nM | 56%
Cn1cncc1C(C)(c1ccc(Cl)cc1)c1ccc2c(c1)c(-c1cccc(Cl)c1)cc(=O)n2C (racemic) [Compound 12, (±)-4-(3-chlorophenyl)-6-[1-(4-chlorophenyl)-1-(1-methyl-1H-imidazol-5-yl)ethyl]-1-methyl-2(1H)-quinolinone.ethanedioate (1:1)] | 4.2 nM | 203.9 °C | 66 nM | –
Cn1cncc1C(CO)(c1ccc(Cl)cc1)c1ccc2c(c1)c(-c1cccc(Cl)c1)cc(=O)n2C (stereo not shown) [Compound 71] | 26 nM | – | 288 nM | –
COC(c1ccc(Cl)cc1)(c1ccc2c(c1)c(-c1cccc(Cl)c1)cc(=O)n2C)c1cncn1C (racemic) (hydrate or solvate) [Compound 4, (±)-4-(3-chlorophenyl)-6-[(4-chlorophenyl)methoxy(1-methyl-1H-imidazol-5-yl)methyl]-1-methyl-2(1H)-quinolinone ethanedioate(1:1).dihydrate] | – | 154.6 °C | – | –
COCCNC(c1ccc(Cl)cc1)(c1ccc2c(c1)c(-c1cccc(Cl)c1)cc(=O)n2C)c1cncn1C (stereo not shown) [Compound 67] | 5.9 nM | – | 51 nM | –
